# Assay results as given in patent publication US20230174575A1 (priority 2020, published 2023).
# Where two headings read alike, the source gives them in different places.
# Key:
# [1] = tested on: Vero cells; assay: Cell toxicity against Vero cells by MTT assay; conditions: MTT assay
# Protocol: (§1) Cell toxicity was monitored by establishing the effect of lysozyme HCl against Vero cells (epithelial cells of monkey kidneys). The cells were seeded in 96-well plates at the concentration of 1×10^4 cells/well. 24 hours after seeding, the cells were treated with serial dilutions of lysozyme HCl or chloroquine (as control), in a final volume of 200 in triplicate. After 72 hours' incubation at 37° C. with 5% CO2, cell viability was measured by MTT assay (D'Alessandro, M. et al., Differential effects on angiogenesis of two antimalarial compounds, dihydroartemisinin and artemisone: Implications for embryotoxicity, Toxicology. 241 (2007) 66-74. Doi: 10.1016/j.tox.2007.08.084).
# (§2) The data were calculated as percentage cell viability using the formula:
# (§3) [(absorbance of sample−blank of cell-free sample)/mean absorbance of control of media]×100.
# (§4) The cytotoxicity of ovotransferrin and chloroquine (CQ) was measured by MTT assay, similarly to the method used for lysozyme HCl.
# [2] = tested on: SARS-CoV-2; type: cell-based; conditions: for Percentage replication of SARS-CoV-2 (lysozyme only): no ovotransferrin
# [3] = tested on: SARS-CoV-2; assay: Virucidal activity, plaque test; type: cell-based
# [4] = tested on: Micrococcus lysodeikticus cells; assay: Enzyme activity, enzymatic turbidimetric method (FIP method); type: biochemical
# Protocol: • Flow rate: 1 ml/min Determination of assay value (enzymatic turbidimetric method using Micrococcus lysodeikticus cells): according to the FIP method (Pharmaceutical Enzyme, Ed 1997, 84, 375) and J Pharm Pharmacol. 2001; 53 (4); 549-54.
# [5] = Cell toxicity against Vero cells by MTT assay; conditions: African green monkey
# Protocol: as §1, §2, §3, §4
compound,measurement,setting,value
lysozyme hydrochloride [Lysozyme HCl],CC50 for Vero cells,[1]; 72 hours,13.3 mg/mL
same,antiviral activity against SARS-CoV-2 infection in the in vitro test,[2],high antiviral activity
same,percentage viral replication,[2],"very low, and close to zero"
same,% viral replication (average of 9 replications),"[2]; Dry heat treatment (74° C. for 60 min), 0.33 mg/mL",83.24%
same,% viral replication (average of 9 replications),"[2]; Dry heat treatment (74° C. for 60 min), 0.5 mg/mL",42.05%
same,% viral replication (average of 9 replications),"[2]; Dry heat treatment (74° C. for 60 min), 0.75 mg/mL",11.31%
same,% viral replication (average of 9 replications),"[2]; Dry heat treatment (99° C. for 40 min), 0.33 mg/mL",60.32%
same,% viral replication (average of 9 replications),"[2]; Dry heat treatment (99° C. for 40 min), 0.5 mg/mL",35.56%
same,% viral replication (average of 9 replications),"[2]; Dry heat treatment (99° C. for 40 min), 0.75 mg/mL",16.58%
same,% viral replication (average of 9 replications),"[2]; Heat treatment in aqueous solution, 90° C. for 3 minutes, 0.33 mg/mL",87.85%
same,% viral replication (average of 9 replications),"[2]; Heat treatment in aqueous solution, 90° C. for 3 minutes, 0.5 mg/mL",67.97%
same,% viral replication (average of 9 replications),"[2]; Heat treatment in aqueous solution, 90° C. for 3 minutes, 0.75 mg/mL",15.55%
same,% viral replication (average of 9 replications),"[2]; Heat treatment in aqueous solution, 90° C. for 6 minutes, 0.33 mg/mL",87.96%
same,% viral replication (average of 9 replications),"[2]; Heat treatment in aqueous solution, 90° C. for 6 minutes, 0.5 mg/mL",51.62%
same,% viral replication (average of 9 replications),"[2]; Heat treatment in aqueous solution, 90° C. for 6 minutes, 0.75 mg/mL",9.88%
same,% viral replication (average of 9 replications),"[2]; Heat treatment in aqueous solution, 90° C. for 20 minutes, 0.33 mg/mL",78.00%
same,% viral replication (average of 9 replications),"[2]; Heat treatment in aqueous solution, 90° C. for 20 minutes, 0.5 mg/mL",36.10%
same,% viral replication (average of 9 replications),"[2]; Heat treatment in aqueous solution, 90° C. for 20 minutes, 0.75 mg/mL",18.30%
same,% viral replication (average of 9 replications),"[2]; Heat treatment in aqueous solution, 90° C. for 25 minutes, 0.33 mg/mL",42.06%
same,% viral replication (average of 9 replications),"[2]; Heat treatment in aqueous solution, 90° C. for 25 minutes, 0.5 mg/mL",24.61%
same,% viral replication (average of 9 replications),"[2]; Heat treatment in aqueous solution, 90° C. for 25 minutes, 0.75 mg/mL",2.62%
same,% viral replication (average of 9 replications),"[2]; No heat treatment, 0.33 mg/mL",79.72%
same,% viral replication (average of 9 replications),"[2]; No heat treatment, 0.5 mg/mL",58.13%
same,% viral replication (average of 9 replications),"[2]; No heat treatment, 0.75 mg/mL",25.51%
same,Percentage replication of SARS-CoV-2 (lysozyme only),[2]; lysozyme HCl 0.32 mg/ml,93%
same,Percentage replication of SARS-CoV-2 (lysozyme only),[2]; lysozyme HCl 0.42 mg/ml,89%
same,Percentage replication of SARS-CoV-2 (lysozyme only),[2]; lysozyme HCl 0.56 mg/ml,93%
same,viral replication inhibited by,"[2]; lysozyme HCl 0.75 mg/ml, in the absence of ovotransferrin",about 62%
same,Percentage replication of SARS-CoV-2 (lysozyme only),[2]; lysozyme HCl 0.75 mg/ml,62%
same,mean PFU/ml (average of three experiments),[3]; 0.42 mg/ml,70 PFU/ml
same,percentage (PFU relative to untreated infected cells),[3]; 0.42 mg/ml,83.9%
same,mean PFU/ml (average of three experiments),[3]; 0.56 mg/ml,61.65 PFU/ml
same,percentage (PFU relative to untreated infected cells),[3]; 0.56 mg/ml,84.1%
same,mean PFU/ml (average of three experiments),[3]; 1 mg/ml,75 PFU/ml
same,percentage (PFU relative to untreated infected cells),[3]; 1 mg/ml,(<100%)
same,reduction of infectivity of SARS-CoV-2,"[3]; any of the doses used (0.42, 0.56, 1 mg/ml), plaque assay",did not reduce the infectivity
same,Enzyme activity (turbidimetric method),[4]; No heat treatment,98.7
same,Enzyme activity (turbidimetric method),[4]; after dry heat treatment (74° C. for 60 min),98.8
same,Enzyme activity (turbidimetric method),[4]; after dry heat treatment (99° C. for 40 min),98.1
same,Enzyme activity (turbidimetric method),"[4]; after heat treatment in aqueous solution, 90° C. for 3 minutes",97.3
same,Enzyme activity (turbidimetric method),"[4]; after heat treatment in aqueous solution, 90° C. for 6 minutes",97.4
same,Enzyme activity (turbidimetric method),"[4]; after heat treatment in aqueous solution, 90° C. for 20 minutes",92.1
same,Enzyme activity (turbidimetric method),"[4]; after heat treatment in aqueous solution, 90° C. for 25 minutes",88.8
"CCN(CC)CCCC(C)Nc1ccnc2cc(Cl)ccc12 (stereo not drawn) [CQ, chloroquine, reference compound]",CC50 at 72 h,[5],95.3 ± 18 µM
same,CC10,[1]; unit not given,20.93±4.39
Heat-treated lysozyme: lysozyme HCl heat-treated at 99° C. for 40 minutes,mean PFU/ml (average of three experiments),[3]; 0.42 mg/ml,58.61 PFU/ml
same,percentage (PFU relative to untreated infected cells),[3]; 0.42 mg/ml,57.2%
same,infectivity of SARS-CoV-2 reduced by,"[3]; 0.42 mg/ml, plaque assay",57.2%
same,mean PFU/ml (average of three experiments),[3]; 0.56 mg/ml,60.41 PFU/ml
same,percentage (PFU relative to untreated infected cells),[3]; 0.56 mg/ml,58.9%
same,infectivity of SARS-CoV-2 reduced by,"[3]; 0.56 mg/ml, plaque assay",58.9%
same,mean PFU/ml (average of three experiments),[3]; 1 mg/ml,71.32 PFU/ml
same,percentage (PFU relative to untreated infected cells),[3]; 1 mg/ml,(69.6%)
same,infectivity of SARS-CoV-2 reduced by,"[3]; 1 mg/ml, plaque assay",69.6%
